The values that follow come from US9149535B2, “Polymers and the preparation of nanogel drug cocktails” (University of South Carolina, priority 2012, dated 2015).

This test has as its system cancer cells. Briefly: Intracellular trafficking by confocal laser scanning microscopy (CLSM). It is filed as cell-based. Conditions: 3 hr. An excerpt: To monitor the intracellular trafficking of nanogel, confocal laser scanning microscopy (CLSM) was employed. […] Since only about 20% DOX could be released from nanogel under the intracellular environment (FIG. 2A), the signals should mainly represent ND nanogel. […] Due to its relatively large size, it will be impossible for it to pass the nuclear pore complex, which is about 40 nm.

For the molecule `COc1cccc2c1C(=O)c1c(O)c3c(c(O)c1C2=O)C[C@@](O)(C(=O)CO)C[C@@H]3O[C@H]1C[C@H](N)[C@H](O)[C@H](C)O1` [DOX, doxorubicin], the intracellular localisation result is reported as “preferentially labels their nuclei”.
